Test results taken from patent publication US20250002450A1, “CATIONIC STEROID COMPOUNDS, METHOD OF OBTAINING THEREOF, FORMULATIONS COMPRISING THEREOF AND THEIR USES” (UNIVERSIDADE DO PORTO, priority 2021, published 2025).
Values after ≈ are worked out from the molar mass of the structure shown. Where two headings read alike, the source gives them in different places.

Columns and labels:
S. aureus 66/1 (MRSA) = assay: Antibacterial MIC/MBC (broth microdilution); format: cell-based, Staphylococcus aureus
Source text: (§1) Twelve reference bacterial strains and nine MDR clinically relevant bacterial strains were used in this study. Gram-negative bacteria comprised reference strains E. coli ATCC 25922, K. pneumoniae ATCC 13883, Salmonella enterica serovar Typhimurium CECT 443, P. aeruginosa ATCC 27853, A. baumannii ATCC 19606, C. jejuni ATCC 33560 (ATCC—American Type Culture Collection; CECT—Colección Espanola de Cultivos Tipo); clinical isolates E. coli SA/2, an extended-spectrum β-lactamase (ESBL)-producing strain and P. aeruginosa 33b, a pan-drug-resistant isolate; and animal isolates C. jejuni P5/4, a ciprofloxacin-resistant strain, C. jejuni 4432, C. jejuni 4433, C. jejuni 4448, and E. coli 2252, a COL-resistant strain [42]. Gram-positive strains included S. aureus ATCC 29213, E. faecalis ATCC 29212, S. pyogenes ATCC 19615, and environmental isolates methicillin-resistant S. aureus (MRSA) 66/1 [43], and VAN-resistant enterococci (VRE) E. faecalis B3/101 [44]. Gram-negative fish pathogens Yersinia ruckeri ATCC 29473, Listonella anguillarum ATCC 1924, and Tenacibaculum maritimum ATCC 43397 were also included.
(§2) Strains were kept in Trypto-Casein Soy agar (TSA—Biokar Diagnostics, Allone, Beauvais, France) slants and, before each assay, were sub-cultured in Mueller-Hinton agar (MHA—Biokar Diagnostics, Allone, Beauvais, France). Y. ruckeri ATCC 29473 and L. anguillarum ATCC 1924 were kept in Nutrient Agar (Condalab, Madrid, Spain) and T. maritimum ATCC 43397 was kept in TMM agar (Condalab, Madrid, Spain), and were sub-cultured in the respective culture media before each assay. For S. pyogenes ATCC 19615, CAMHB was supplemented with 3.75% lysed horse blood (LBH—Oxoid, Basingstoke, England), whereas for C. jejuni it was supplemented with 2.5% LHB. Colony-forming unit counts of the inoculum were conducted to determine the initial inoculum size (which should be approximately 5×10^5 CFU/mL). Sterility and growth controls were included in each assay. The 96-well U-shaped untreated polystyrene microtiter plates were incubated for 20 h at 37 degrees C. (42 degrees C. for C. jejuni, in a microaerophilic atmosphere) and the minimal inhibitory concentration (MIC) was determined as the lowest concentration of compound that prevented visible growth. The minimal bactericidal concentration (MBC) was determined by spreading 100 μL of the content of the wells with no visible growth on MH plates. The MBC was determined as the lowest concentration of compound that killed 99.9% of the initial inoculum after overnight incubation at 37 degrees C. Two independent assays were performed for reference and MDR strains.
(§3) An initial screening of the antibacterial activity of the compounds was performed by the Kirby-Bauer disk diffusion method, as recommended by the Clinical and Laboratory Standards Institute (CLSI). Briefly, sterile 6 mm blank paper disks (Oxoid, Basingstoke, England) impregnated with 15 μg of each compound were placed on inoculated MH agar plates. A blank disk with dimethylsulfoxide (DMSO) was used as a negative control. MH inoculated plates were incubated for 18-20 h at 37 degrees C. At the end of incubation, the inhibition halos where measured. The MIC was used to determine the antibacterial activity of each compound, in accordance with the recommendations of the CLSI. Two-fold serial dilutions of the compounds were prepared in Mueller-Hinton Broth 2 (MHB2—Sigma-Aldrich, St. Louis, MO, USA) within the concentration range of 0.062-64 μg/mL. CTX ranging between 0.031-16 μg/mL was used as a control. Sterility and growth controls were included in each assay. Purity checks and colony counts of the inoculum suspensions were also performed in order to ensure that the final inoculum density closely approximates the intended number (5×10^5 CFU/mL). The MIC was determined as the lowest concentration of compound that inhibited growth of the bacteria. The MBC was assessed by spreading 10 μL of culture collected from wells showing no visible growth on MH agar plates. […]

E. faecalis B3/101 (VRE) = assay: Antibacterial MIC/MBC (broth microdilution); format: cell-based, Enterococcus faecalis; settings: for antibacterial activity (in words): E. faecalis B3/101; for MBC / MIC: E. faecalis B3/101 (VRE)
Source text: as §1, §2, §3

[1] = tested on: Enterococcuss faecalis ATCC 29212; assay: Antibacterial MIC/MBC (broth microdilution); format: cell-based, Enterococcus faecalis; settings: for antibacterial activity (in words): E. faecalis ATCC 29212; for MBC / MIC: Enterococcuss faecalis ATCC 29212
Source text: as §1, §2, §3

[2] = tested on: E. coli 2252 (COL-resistant); assay: Antibacterial MIC/MBC (broth microdilution); format: cell-based, Escherichia coli
Source text: as §1, §2, §3

E. coli SA/2 (ESBL) = assay: Antibacterial MIC/MBC (broth microdilution); format: cell-based, Escherichia coli
Source text: as §1, §2, §3

[3] = tested on: Streptococcuss pyogenes ATCC 19615; assay: Antibacterial MIC/MBC (broth microdilution); format: cell-based, Streptococcus pyogenes; settings: for MBC / MIC: Streptococcuss pyogenes ATCC 19615
Source text: as §1, §2, §3

[4] = tested on: Tenacibaculum maritimum ATCC 43397; assay: Antibacterial disk diffusion; format: cell-based
Source text: as §1, §2, §3

[5] = tested on: Staphylococcus aureus ATCC 29213; assay: Antibacterial MIC/MBC (broth microdilution); format: cell-based
Source text: as §1, §2, §3

[6] = tested on: Listonella anguilarum ATCC 1924; assay: Antibacterial MIC/MBC (broth microdilution); format: cell-based; settings: for antibacterial activity (in words): Listonella anguilarum; for MBC / MIC: Listonella anguilarum ATCC 1924
Source text: as §1, §2, §3

[7] = tested on: Salmonella enterica serovar Typhimurium CECT 443; assay: Antibacterial MIC/MBC (broth microdilution); format: cell-based
Source text: as §1, §2, §3

[8] = tested on: Yersinia ruckeri ATCC 29473; assay: Antibacterial MIC/MBC (broth microdilution); format: cell-based
Source text: as §1, §2, §3

[9] = tested on: Klebsiella pneumoniae ATCC 13883; assay: Antibacterial MIC/MBC (broth microdilution); format: cell-based; settings: for MBC / MIC: Klebsiella pneumoniae ATCC 13883
Source text: as §1, §2, §3

[10] = tested on: Campylobacter jejuni ATCC 33560; assay: Antibacterial MIC/MBC (broth microdilution); format: cell-based; settings: for MBC / MIC: Campylobacter jejuni ATCC 33560
Source text: as §1, §2, §3

[11] = tested on: Escherichia coli ATCC 25922; assay: Antibacterial MIC/MBC (broth microdilution); format: cell-based; settings: for MBC / MIC: Escherichia coli ATCC 25922
Source text: as §1, §2, §3

P. aeruginosa 33b (PDR) = assay: Antibacterial MIC/MBC (broth microdilution); format: cell-based, Pseudomonas aeruginosa; settings: for MBC / MIC: P. aeruginosa 33b (PDR)
Source text: as §1, §2, §3

C[C@H](CCC(=O)NCCN)[C@H]1CC[C@H]2[C@@H]3CC[C@@H]4C[C@H](O)CC[C@]4(C)[C@H]3C[C@H](O)[C@]12C [Compound 1, (R)—N-(2-aminoethyl)-4-((3R,5R,8R,9S,10S,12S,13R,14S,17R)-3,12-dihydroxy-10,13-dimethylhexadecahydro-1H-cyclopenta[a]phenanthren-17-yl) pentanamida]
MBC (S. aureus 66/1 (MRSA)): 32 µg/mL (≈ 73.6 µM) | MIC (S. aureus 66/1 (MRSA)): 32 µg/mL (≈ 73.6 µM) | antibacterial activity (in words) (E. faecalis B3/101 (VRE)): displayed the same effect | MBC (E. faecalis B3/101 (VRE)): 32 µg/mL (≈ 73.6 µM) | MIC (E. faecalis B3/101 (VRE)): 32 µg/mL (≈ 73.6 µM) | antibacterial activity (in words) [1]: exhibited antimicrobial activity | MBC [1]: 32 µg/mL (≈ 73.6 µM) | MIC [1]: 16 µg/mL (≈ 36.8 µM) | antibacterial activity (in words) ([2]; E. coli 2252): active | MIC ([2]; E. coli 2252 (COL-resistant)): 64 µg/mL (≈ 147 µM) | antibacterial activity (in words) (E. coli SA/2 (ESBL); E. coli SA/2): active | MBC (E. coli SA/2 (ESBL); E. coli SA/2 (ESBL)): 32 µg/mL (≈ 73.6 µM) | MIC (E. coli SA/2 (ESBL); E. coli SA/2 (ESBL)): 32 µg/mL (≈ 73.6 µM) | antibacterial activity (in words) ([3]; S. pyogenes ATCC 19615): active | MBC [3]: 64 µg/mL (≈ 147 µM) | MIC [3]: 64 µg/mL (≈ 147 µM) | Disk diffusion ([4]; Tenacibaculum maritimum ATCC 43397): 20 mm | MBC [5]: 16 µg/mL (≈ 36.8 µM) | MIC [5]: 16 µg/mL (≈ 36.8 µM) | antibacterial activity (in words) [6]: active | MBC [6]: 32 µg/mL (≈ 73.6 µM) | MIC [6]: 16 µg/mL (≈ 36.8 µM) | MBC [7]: 16 µg/mL (≈ 36.8 µM) | MIC [7]: 16 µg/mL (≈ 36.8 µM) | antibacterial activity (in words) [7]: exhibited antimicrobial activity | MBC [8]: 32 µg/mL (≈ 73.6 µM) | MIC [8]: 16 µg/mL (≈ 36.8 µM) | antibacterial activity (in words) [8]: displayed antibacterial activity | antibacterial activity (in words) ([9]; K. pneumoniae ATCC 13883): active | MBC [9]: 64 µg/mL (≈ 147 µM) | MIC [9]: 64 µg/mL (≈ 147 µM) | antibacterial activity (in words) ([10]; C. jejuni ATCC 33560): showed antimicrobial activity | MBC [10]: 64 µg/mL (≈ 147 µM) | MIC [10]: 64 µg/mL (≈ 147 µM) | antibacterial activity (in words) ([11]; E. coli ATCC 25922): active | MBC [11]: 64 µg/mL (≈ 147 µM) | MIC [11]: 32 µg/mL (≈ 73.6 µM) | antibacterial activity (in words) (P. aeruginosa 33b (PDR); P. aeruginosa 33b): active | MBC (P. aeruginosa 33b (PDR)): >64 µg/mL | MIC (P. aeruginosa 33b (PDR)): 64 µg/mL (≈ 147 µM)

C[C@H](CCC(=O)N1CCNCC1)[C@H]1CC[C@H]2[C@@H]3CC[C@@H]4C[C@H](O)CC[C@]4(C)[C@H]3C[C@H](O)[C@]12C [Compound 9, (R)-4-((3R,5R,8R,9S,10S,12S,13R,14S,17R)-3,12-dihydroxy-10,13-dimethylhexadecahydro-1H-cyclopenta[a]phenanthren-17-yl)-1-(piperazin-1-yl) pentan-1-one]
MBC (S. aureus 66/1 (MRSA); Staphylococcus aureus, read-out: MBC): 64 µg/mL (≈ 139 µM) | MIC (S. aureus 66/1 (MRSA); Staphylococcus aureus, read-out: MIC): 64 µg/mL (≈ 139 µM) | antibacterial activity (in words) (E. faecalis B3/101 (VRE)): displayed the same effect | MBC (E. faecalis B3/101 (VRE); Enterococcus faecalis, read-out: MBC): > 64 µg/mL | MIC (E. faecalis B3/101 (VRE); Enterococcus faecalis, read-out: MIC): 32 µg/mL (≈ 69.5 µM) | antibacterial activity (in words) [1]: exhibited antimicrobial activity | MBC ([1]; Enterococcus faecalis, ATCC29212, read-out: MBC): 64 µg/mL (≈ 139 µM) | MIC ([1]; Enterococcus faecalis, ATCC29212, read-out: MIC): 64 µg/mL (≈ 139 µM) | MBC ([2]; Escherichia coli, E. coli 2252 (COL-resistant), read-out: MBC): > 64 µg/mL | MIC ([2]; Escherichia coli, E. coli 2252 (COL-resistant), read-out: MIC): > 64 µg/mL | MBC (E. coli SA/2 (ESBL); Escherichia coli): > 64 µg/mL | MIC (E. coli SA/2 (ESBL); Escherichia coli): > 64 µg/mL | MBC ([3]; Streptococcus pyogenes, ATCC19615, read-out: MBC): > 64 µg/mL | MIC ([3]; Streptococcus pyogenes, ATCC19615, read-out: MIC): > 64 µg/mL | Inhibition zone diameter (disk diffusion) ([4]; Tenacibaculum maritimum ATCC 43397, footnote *): 9 mm | MBC ([5]; ATCC29213, read-out: MBC): 64 µg/mL (≈ 139 µM) | MIC ([5]; ATCC29213, read-out: MIC): 64 µg/mL (≈ 139 µM) | antibacterial activity (in words) [6]: active | MBC ([6]; read-out: MBC): 64 µg/mL (≈ 139 µM) | MIC ([6]; read-out: MIC): 64 µg/mL (≈ 139 µM) | MBC ([7]; read-out: MBC): 64 µg/mL (≈ 139 µM) | MIC ([7]; read-out: MIC): 64 µg/mL (≈ 139 µM) | MBC ([8]; ATCC29473, read-out: MBC): > 64 µg/mL | MIC ([8]; ATCC29473, read-out: MIC): > 64 µg/mL | MBC ([9]; ATCC13883, read-out: MBC): > 64 µg/mL | MIC ([9]; ATCC13883, read-out: MIC): > 64 µg/mL | MBC ([10]; ATCC33560, read-out: MBC): > 64 µg/mL | MIC ([10]; ATCC33560, read-out: MIC): > 64 µg/mL | MBC ([11]; ATCC25922, read-out: MBC): > 64 µg/mL | MIC ([11]; ATCC25922, read-out: MIC): > 64 µg/mL | MBC (P. aeruginosa 33b (PDR); Pseudomonas aeruginosa, read-out: MBC): > 64 µg/mL | MIC (P. aeruginosa 33b (PDR); Pseudomonas aeruginosa, read-out: MIC): > 64 µg/mL
